Results from publication PMC10459693, “Toward Stability Enhancement of NTS1R-Targeted Radioligands: Structural Interventions on [^99mTc]Tc-DT1” (Pharmaceutics, 2023).
Peptide text beside a SMILES is read from it. * marks the point of attachment. Palmitoyl = CCCCCCCCCCCCCCCC(=O)*; X1 = NCCNCC(CNCCN)C(=O)*

Tested on: AsPC-1 cells
Experiment: NTS1R-specific uptake and internalization in AsPC-1 cells
Assay type: cell-based, human
Method: The NTS1R-specific internalization of [^99mTc]Tc-DT1/7/8/9 radioligands was compared in AsPC-1 cells. The cells were seeded in 6-well plates (1 × 10^6 cells per well) and left to grow overnight. The following day, the medium was aspirated, and the cells were washed twice with internalization medium (2 mL IM: RPMI supplemented with 1% v/v FBS) on ice. They were placed on the bench, and warm IM (1200 μL 37 °C) was added per well, followed by radioligand solution (150 μL, 250 fmol) and either IM (150 μL total: T; upper wells) or NT (10^−5 M in IM, non-specific: NS; lower wells). The plates were placed in the Incubator-Orbital Shaker at 37 °C for 1 h, and the incubation was interrupted by placing the plates on ice. The supernatant was collected in RIA tubes, and the cells were washed with 1 mL phosphate-buffered saline (PBS, pH 7.4, 4 °C) containing 0.5% w/v BSA, and the washing was also collected in the same RIA tube. Cells were treated twice for 5 min with glycine buffer (600 μL, 50 mM glycine, 0.1 M NaCl, pH 2.8), and supernatants were collected (membrane bound fraction, MB). The cells were washed again with 1 mL ice-cold PBS-BSA buffer, which was discarded. Finally, cells were lysed (2 × 600 μL 1 M NaOH), and the lysates were collected (internalized fraction, IF). Sample radioactivity was measured on the γ-counter. Specific values for MB and IF were acquired by subtracting NS values from T ones. Results are expressed as mean percentage of added radioactivity ± sd, n = 3. In addition, time-dependent internalization in AsPC-1 cells was directly compared for [^99mTc]Tc-DT1/9 by incubation at 37 °C for 15 min, 30 min, 1 h, and 2 h, following the above-described protocol for each time point.

## CCCCCCCCCCCCCCCC(=O)NCCCC[C@H](NC(=O)C(CNCCN)CNCCN)C(=O)N[C@@H](CCCNC(=N)N)C(=O)N[C@@H](CCCNC(=N)N)C(=O)N1CCC[C@H]1C(=O)N[C@@H](Cc1ccc(O)cc1)C(=O)N[C@H](C(=O)N[C@@H](CC(C)C)C(=O)O)[C@@H](C)CC [[^99mTc]Tc-DT9, metal not drawn] (X1-K(Palmitoyl)RRPYIL-OH)
1 h at 37 °C
  internalization, specific of added radioactivity: 16.53 ± 1.12%
  specific cell uptake of added radioactivity (internalized + membrane bound): 16.76 ± 1.16%
2 h at 37 °C
  specific uptake of added radioactivity (time-dependent internalization): 21.5 ± 1.0%
